Experimental data: patent US12018021B2 (UCB Biopharma SRL, priority 2018, dated 2024)

Molecular target: IgE-Tb / FcεRIα-Y131A-AF488 (Homo sapiens, UniProt P01854)
Experiment: IgE-Tb / FcεRIα-Y131A-AF488 FRET assay (protocol for examples 1 to 233)
Format: binding
Details: examples 1 to 233: 5 nM IgE-Tb, 25 nM FcεRIα-Y131A-AF488, incubated 2 hours at room temperature; read-out: Y131A FRET IC50 range
Procedure, shortened: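 TR-FRET displacement with 5 nM IgE-Tb and 25 nM FcεRIα-Y131A-AF488 (final), 10-point 3-fold compound dilutions from typically 10 μM top, 2% DMSO, 2 h at room temperature. Excitation 330 nm, 520/495 nm emission ratio; MIN set with 200 nM unlabelled FcεRIα. IC50 from four-parameter logistic fit of percent inhibition.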

IgE-Tb / FcεRIα-Y131A-AF488, sequence (P01854 1-427 limits assumed, stated change not applied): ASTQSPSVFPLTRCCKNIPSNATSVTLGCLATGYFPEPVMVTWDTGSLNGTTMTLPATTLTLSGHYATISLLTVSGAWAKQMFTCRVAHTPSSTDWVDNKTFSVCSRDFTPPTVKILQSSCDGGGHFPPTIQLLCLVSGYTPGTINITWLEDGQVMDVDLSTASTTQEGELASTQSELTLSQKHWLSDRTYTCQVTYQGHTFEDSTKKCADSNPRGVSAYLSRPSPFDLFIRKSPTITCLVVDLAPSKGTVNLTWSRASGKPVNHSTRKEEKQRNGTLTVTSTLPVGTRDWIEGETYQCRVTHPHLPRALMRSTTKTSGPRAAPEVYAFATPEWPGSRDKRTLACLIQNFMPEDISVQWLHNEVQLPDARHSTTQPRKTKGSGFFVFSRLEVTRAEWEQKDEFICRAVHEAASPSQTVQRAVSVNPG

Row | SMILES | IC50 [µM]
1 | O=C(NCC1CC1)c1c(NC(=O)C2CC2)sc2c1CC(C(=O)N1CCS(=O)(=O)CC1)CC2 (stereo not drawn) [Example 56, 2-(Cyclopropanecarbonylamino)-N-(cyclopropylmethyl)-5-(1,1-dioxo-1,4-thiazinane-4-carbonyl)-4,5,6,7-tetrahydrobenzothiophene-3-carboxamide] | 10 to 50
2 | O=C(NCC1CC1)c1c(NC(=O)C2CC2)sc2c1CC(C(=O)NCCc1ccc(O)cc1)CC2 (stereo not drawn) [Example 57, 2-(Cyclopropanecarbonylamino)-N3-(cyclopropylmethyl)-N5-[2-(4-hydroxyphenyl)ethyl]-4,5,6,7-tetrahydrobenzothiophene-3,5-dicarboxamide] | < 1
3 | O=C(NCC1CC1)c1c(NC(=O)C2CC2)sc2c1CC(C=NO)CC2 (stereo not drawn) [Example 58, 2-(cyclopropanecarbonylamino)-N-(cyclopropylmethyl)-5-(hydroxyiminomethyl)-4,5,6,7-tetrahydrobenzothiophene-3-carboxamide] | 1 to 10
4 | CCn1cnnc1NCC1CCc2sc(NC(=O)C3CC3)c(C(=O)NCC3CC3)c2C1 (stereo not drawn) [Example 59, 2-(Cyclopropanecarbonylamino)-N-(cyclopropylmethyl)-5-[[(4-ethyl-1,2,4-triazol-3-yl)amino]methyl]-4,5,6,7-tetrahydrobenzothiophene-3-carboxamide] | < 1
5 | Cc1ccc(NCC2(O)CCc3sc(NC(=O)C4CC4)c(C(=O)NCC4CC4)c3C2)cc1 (stereo not drawn) [Example 60, 2-(Cyclopropanecarbonylamino)-N-(cyclopropylmethyl)-5-hydroxy-5-[(4-methylanilino)methyl]-6,7-dihydro-4H-benzothiophene-3-carboxamide] | 1 to 10
6 | Cc1ccc(N2CC3(CCc4sc(NC(=O)C5CC5)c(C(=O)NCC5CC5)c4C3)OC2=O)cc1 (stereo not drawn) [Example 61, 2-(Cyclopropanecarbonylamino)-N-(cyclopropylmethyl)-2′-oxo-3′-(p-tolyl)spiro[6,7-dihydro-4H-benzothiophene-5,5′-oxazolidine]-3-carboxamide] | < 1
7 | Nc1ncccc1C1CCc2sc(NC(=O)C3CC3)c(C(=O)NCC3CC3)c2C1 (stereo not drawn) [Example 62, 5-(2-Amino-3-pyridyl)-2-(cyclopropanecarbonylamino)-N-(cyclopropylmethyl)-4,5,6,7-tetrahydrobenzothiophene-3-carboxamide] | < 1
8 | Cc1ccc(-c2cnc(C3CCc4sc(NC(=O)C5CC5)c(C(=O)NCC5CC5)c4C3)[nH]2)cc1 (stereo not drawn) [Example 63, 2-(Cyclopropanecarbonylamino)-N-(cyclopropylmethyl)-5-[5-(p-tolyl)-1H-imidazol-2-yl]-4,5,6,7-tetrahydrobenzothiophene-3-carboxamide] | < 1
9 | N#CC1CCc2sc(NC(=O)C3CC3)c(C(=O)NCC3CC3)c2C1 (stereo not drawn) [Example 64, 5-Cyano-2-(cyclopropanecarbonylamino)-N-(cyclopropylmethyl)-4,5,6,7-tetrahydrobenzothiophene-3-carboxamide] | 1 to 10
10 | N#CC1CCCc2c1sc(NC(=O)C1CC1)c2C(=O)NCC1CC1 (stereo not drawn) [Example 65, 7-Cyano-2-(cyclopropanecarbonylamino)-N-(cyclopropylmethyl)-4,5,6,7-tetrahydrobenzothiophene-3-carboxamide] | 1 to 10
11 | O=C(NCC1CC1)c1c(NC(=O)C2CC2)sc2c1C[C@H](C(F)(F)F)CC2 [Example 66, (5R)-2-(Cyclopropanecarbonylamino)-N-(cyclopropylmethyl)-5-(trifluoromethyl)-4,5,6,7-tetrahydrobenzothiophene-3-carboxamide] | 1 to 10
12 | O=C(NCC1CC1)c1c(NC(=O)C2CC2)sc2c1C[C@@H](C(F)(F)F)CC2 [Example 67, (5S)-2-(Cyclopropanecarbonylamino)-N-(cyclopropylmethyl)-5-(trifluoromethyl)-4,5,6,7-tetrahydrobenzothiophene-3-carboxamide] | < 1
13 | Cc1coc(C2CCc3sc(NC(=O)C4CC4)c(C(=O)NCC4CC4)c3C2)n1 (stereo not drawn) [Example 68, 2-(Cyclopropanecarbonylamino)-N-(cyclopropylmethyl)-5-(4-methyloxazol-2-yl)-4,5,6,7-tetrahydrobenzothiophene-3-carboxamide] | 1 to 10
14 | NCC1(O)CCc2sc(NC(=O)C3CC3)c(C(=O)NCC3CC3)c2C1 (stereo not drawn) [Example 69, 5-(Aminomethyl)-2-(cyclopropanecarbonylamino)-N-(cyclopropylmethyl)-5-hydroxy-6,7-dihydro-4H-benzothiophene-3-carboxamide] | 10 to 50
15 | Cc1ccc(NC(=O)NCC2(O)CCc3sc(NC(=O)C4CC4)c(C(=O)NCC4CC4)c3C2)cc1 (stereo not drawn) [Example 70, 2-(Cyclopropanecarbonylamino)-N-(cyclopropylmethyl)-5-hydroxy-5-[(p-tolylcarbamoylamino)methyl]-6,7-dihydro-4H-benzothiophene-3-carboxamide] | 1 to 10
16 | Cc1noc(C2CCc3sc(NC(=O)C4CC4)c(C(=O)NCC4CC4)c3C2)n1 (stereo not drawn) [Example 71, 2-(Cyclopropanecarbonylamino)-N-(cyclopropylmethyl)-5-(3-methyl-1,2,4-oxadiazol-5-yl)-4,5,6,7-tetrahydrobenzothiophene-3-carboxamide] | 1 to 10
17 | Cc1nnc(C2CCc3sc(NC(=O)C4CC4)c(C(=O)NCC4CC4)c3C2)o1 (stereo not drawn) [Example 72, 2-(Cyclopropanecarbonylamino)-N-(cyclopropylmethyl)-5-(5-methyl-1,3,4-oxadiazol-2-yl)-4,5,6,7-tetrahydrobenzothiophene-3-carboxamide] | 1 to 10

Row | SMILES | IC50 [µM]
18 | O=C(NCC1CC1)c1c(NC(=O)C2CC2)sc2c1CC(C(=O)N1CCCC1)CC2 (stereo not drawn) [Example 73, 2-(Cyclopropanecarbonylamino)-N-(cyclopropylmethyl)-5-(pyrrolidine-1-carbonyl)-4,5,6,7-tetrahydrobenzothiophene-3-carboxamide] | 1 to 10
19 | CC1(O)CCc2sc(NC(=O)C3CC3)c(C(=O)NCC3CC3)c2C1 (stereo not drawn) [Example 74, 2-(Cyclopropanecarbonylamino)-N-(cyclopropylmethyl)-5-hydroxy-5-methyl-6,7-dihydro-4H-benzothiophene-3-carboxamide] | 10 to 50
20 | O=C(Nc1sc2c(c1C(=O)N1CC[C@@H](F)C1)CCCC2)C1CC1 [Example 75, N-[3-[(3R)-3-Fluoropyrrolidine-1-carbonyl]-4,5,6,7-tetrahydrobenzothiophen-2-yl]cyclopropanecarboxamide] | 1 to 10
21 | O=C(Nc1sc2c(c1C(=O)N1CC(F)C1)CCCC2)C1CC1 [Example 76, N-[3-(3-Fluoroazetidine-1-carbonyl)-4,5,6,7-tetrahydrobenzothiophen-2-yl]cyclopropanecarboxamide] | 1 to 10
22 | COC1CN(C(=O)c2c(NC(=O)C3CC3)sc3c2CCCC3)C1 [Example 77] | 1 to 10
23 | O=C(Nc1sc2c(c1C(=O)N1CCCCC1)CCCC2)C1CC1 [Example 78, N-[3-(Piperidine-1-carbonyl)-4,5,6,7-tetrahydrobenzothiophen-2-yl]cyclopropanecarboxamide] | 1 to 10
24 | CNC(=O)c1c(NC(=O)C2CC2)sc2c1CCCC2O (stereo not drawn) [Example 79, 2-(Cyclopropanecarbonylamino)-7-hydroxy-N-methyl-4,5,6,7-tetrahydrobenzothiophene-3-carboxamide] | 10 to 50
25 | CC1Cc2c(sc(NC(=O)C3CC3)c2C(=O)NCC2CC2)C(C)C1 (stereo not drawn) [Example 81, 2-(Cyclopropanecarbonylamino)-N-(cyclopropylmethyl)-5,7-dimethyl-4,5,6,7-tetrahydrobenzothiophene-3-carboxamide] | 1 to 10
26 | CC1CCc2sc(NC(=O)C3CC3)c(C(=O)NCC3CC3)c2C1 (stereo not drawn) [Example 82, 2-(Cyclopropanecarbonylamino)-N-(cyclopropylmethyl)-5-methyl-4,5,6,7-tetrahydrobenzothiophene-3-carboxamide] | 1 to 10
27 | CC1(C)CCc2sc(NC(=O)C3CC3)c(C(=O)NCC3CC3)c2C1 [Example 84, 2-(Cyclopropanecarbonylamino)-N-(cyclopropylmethyl)-5,5-dimethyl-6,7-dihydro-4H-benzothiophene-3-carboxamide] | 1 to 10
28 | CC1CC(=O)c2sc(NC(=O)C3CC3)c(C(=O)NCC3CC3)c2C1 (stereo not drawn) [Example 85, 2-(Cyclopropanecarbonylamino)-N-(cyclopropylmethyl)-5-methyl-7-oxo-5,6-dihydro-4H-benzothiophene-3-carboxamide] | 1 to 10
29 | O=C(NCC1CC1)c1c(NC(=O)C2CC2)sc2c1CC1(CC2)OCCO1 [Example 86, 2′-(Cyclopropanecarbonylamino)-N-(cyclopropylmethyl)spiro[1,3-dioxolane-2,5′-6,7-dihydro-4H-benzothiophene]-3′-carboxamide] | < 1
30 | CC(C)C(=O)Nc1sc2c(c1C(=O)NCC1CC1)CCCC2 [Example 87, N-(Cyclopropylmethyl)-2-(2-methylpropanoylamino)-4,5,6,7-tetrahydrobenzothiophene-3-carboxamide] | 10 to 50
31 | O=C(NCC1CC1)c1c(NC(=O)C2CCC2)sc2c1CCCC2 [Example 88, 2-(Cyclobutanecarbonylamino)-N-(cyclopropylmethyl)-4,5,6,7-tetrahydrobenzothiophene-3-carboxamide] | 10 to 50
32 | CC1CCc2sc(NC(=O)C3CC3)c(C(=O)NCC3CC3)c2C1C (stereo not drawn) [Example 89, 2-(Cyclopropanecarbonylamino)-N-(cyclopropylmethyl)-4,5-dimethyl-4,5,6,7-tetrahydrobenzothiophene-3-carboxamide] | 1 to 10
33 | O=C1NC(=O)C2(CCc3sc(NC(=O)C4CC4)c(C(=O)NCC4CC4)c3C2)N1 (stereo not drawn) [Example 92, 2-(Cyclopropanecarbonylamino)-N-(cyclopropylmethyl)-2′,5′-dioxo-spiro[6,7-dihydro-4H-benzothiophene-5,4′-imidazolidine]-3-carboxamide] | 1 to 10
